Earlier results, collected in patent US20250319042A1, “SKIN CARE PRODUCT WITH LAPACHOL AND METHOD FOR USE THEREOF” (priority 2024, published 2025).

Tests used:
prostaglandin E2 (PGE2) = conditions: in cell culture
[1] = test system: tumor necrosis factor alpha (TNF-a); conditions: in cell culture
[2] = test system: matrix metalloproteinase 3 (MMP-3); conditions: in cell culture
MMP-8 = conditions: in cell culture
MMP-9 = conditions: in cell culture

Row | Structure (SMILES) | inhibition of PGE2 (prostaglandin E2 (PGE2)) | inhibition of TNF-a [1] | inhibition of MMP-3 [2] | inhibition of MMP-8 (MMP-8) | inhibition of MMP-9 (MMP-9) | solubility
1 | CC1(C)CCC2=C(O1)c1ccccc1C(=O)C2=O [beta-lapachone] | inhibits | inhibits | inhibits | inhibits | inhibits | 
2 | CC(C)=CCC1=C(O)C(=O)c2ccccc2C1=O [lapachol, 2-hydroxy-3-(3-methyl-2-butenyl)-1,4-naphtoquinone] |  |  |  |  |  | primarily oil-soluble
